The source of these data is publication PMC10141607, “Powerful Avidity with a Limited Valency for Virus-Attachment Blockers on DC-SIGN: Combining Chelation and Statistical Rebinding with Structural Plasticity of the Receptor” (ACS Central Science, 2023).

Where “and” joins values, the source holds several entries; their conditions need not be identical. Identical values can stand only once.

The target in assay [1] is T1, DC-SIGN ECD oriented surface (Homo sapiens, UniProt Q9NNX6).
T1 construct: made in house
T1 sequence (Q9NNX6 59-404 limits assumed): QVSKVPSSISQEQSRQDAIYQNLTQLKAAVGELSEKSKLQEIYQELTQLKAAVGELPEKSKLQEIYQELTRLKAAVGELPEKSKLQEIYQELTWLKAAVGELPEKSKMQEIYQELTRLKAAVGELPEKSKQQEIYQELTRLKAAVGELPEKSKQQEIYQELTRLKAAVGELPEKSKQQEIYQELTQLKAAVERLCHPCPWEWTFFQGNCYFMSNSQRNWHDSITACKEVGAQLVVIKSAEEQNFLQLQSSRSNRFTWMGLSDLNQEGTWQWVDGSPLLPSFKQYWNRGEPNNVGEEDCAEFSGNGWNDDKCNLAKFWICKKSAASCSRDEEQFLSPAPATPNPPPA
Format: binding. As to conditions: for Kd: SPR direct interaction on DC-SIGN ECD oriented surface, 25 mM Tris pH 8, 150 mM NaCl, 4 mM CaCl2, 4% DMSO, read-out: KD app; for ß factor (valency-corrected enhancement factor): from SPR KDapp, compound 3.1 as monovalent reference.

The next assay has as its system DC-SIGN ECD. Further details: method as in PMID 25648900. As to conditions: SPR inhibition study (competition experiment); cited from earlier work.
For the next assay, the target named is T2, DC-SIGN ECD tetramer (Homo sapiens, UniProt Q9NNX6).
T2 sequence (Q9NNX6 59-404 limits assumed): T1 sequence (Q9NNX6 59-404 limits assumed)
Put plainly: Isothermal titration calorimetry (ITC). Format: binding. As to conditions: 25°C. The protocol:
Thermodynamic parameters of multivalent binding as measured by isothermal titration calorimetry (ITC) were analyzed for compounds 3.2 and 3.6. Usually, ITC should provide, among other parameters, a “real” KD value; however, here we prefer to refer to a KDapp. Indeed, in these ITC experiments, we are not evaluating an affinity (a 1:1 unitary interaction, defined by KD) but rather an avidity phenomenon resulting from cumulative unitary bonds (each of whose individual contributions to the overall avidity cannot be deconvoluted). In addition, this avidity results from several multivalent modalities, a population of binding modes. Thus, the use of KDapp, instead of KD, emphasizes that the values determined here are the result of a complex phenomenon. The ITC binding analysis (Figure 3 and Table 2) is fully in agreement with the other biophysical techniques (see Table 2 for SPR and Figure 2C for FP of 3.6) with KDapp values equal to 58 ± 1 nM and 1.1 ± 0.2 μM for compounds 3.6 and 3.2, respectively. […] Increasing the local concentration close to the site is a major source of avidity generation. The ΔH difference is offset by a more unfavorable entropy for 3.6, which probably originates from the loss of degrees of freedom of construct extremities, six versus two, upon binding. Hydrophobic effect may also contribute, since the hydrophobic rod is shielded better from the solvent by the six units of ligand 1 in 3.6([35]) and exposing the hydrophobic parts and ordering the solvent around them is entropically costly. Combining the enthalpy and entropy effects, the ΔG for the hexavalent ligand improves by 10 kJ/mol. It is interesting to note that a stoichiometry of 1 for the complex with 3.6 is observed, supporting again the chelation mode. On the contrary, a stoichiometry n = 1.5 is observed for 3.2, with a KDapp in the μM range, which is compatible with a mixed chelation and clustering binding mode. […]
This graph is supplementary evidence of the multivalent binding, here chelate binding mode for 3.2, that occur over a DC-SIGN oriented surface.
3. Isothermal titration calorimetric analysis
ITC experiments were performed at 25°C using TA Instrument Nano Isothermal Titration Calorimeter Low volume (Nano ITC LV). Compound 3.6, 3.2 and DC-SIGN ECD were prepared in 25 mM Tris pH 8; 150 mM NaCl, 4 mM CaCl2, 4 % DMSO. Compounds (30 µM of 3.6 or 375 µM of 3.2) were stepwise injected (1.03 µL) to 190 µL of DC-SIGN ECD tetramer (respectively, 30 µM or 48.75 µM) in the cell. The blank titrations (compounds to buffer) were done for subtraction of dilution heat from the integrated data. […]
The free energy changes (∆G) and entropy (∆S) were calculated using equation (2): […]

Assay [2] concerns the target T3, DC-SIGN extracellular domain (human), Q9NNX6.
T3 chain: T1 sequence (Q9NNX6 59-404 limits assumed)
The experiment in a line: AUC; sedimentation velocity; DC-SIGN tetramer 4 uM alone (same peak with 5 nM to 500 nM compound 3.6); monomers to tetramer. As to conditions: remark: other sources report otherwise.

Take `O=C(NCc1ccc(CO)cc1)C1CC(OCCn2cc(COCC(COCCOCCn3cc(-c4cc(OCCOCCO)c(-c5cn(CCOCCOCC(COCc6cn(CCOC7CC(C(=O)NCc8ccc(CO)cc8)C(C(=O)NCc8ccc(CO)cc8)CC7OC7OC(CO)C(O)C(O)C7O)nn6)(COCc6cn(CCOC7CC(C(=O)NCc8ccc(CO)cc8)C(C(=O)NCc8ccc(CO)cc8)CC7OC7OC(CO)C(O)C(O)C7O)nn6)COCc6cn(CCOC7CC(C(=O)NCc8ccc(CO)cc8)C(C(=O)NCc8ccc(CO)cc8)CC7OC7OC(CO)C(O)C(O)C7O)nn6)nn5)cc4OCCOCCO)nn3)(COCc3cn(CCOC4CC(C(=O)NCc5ccc(CO)cc5)C(C(=O)NCc5ccc(CO)cc5)CC4OC4OC(CO)C(O)C(O)C4O)nn3)COCc3cn(CCOC4CC(C(=O)NCc5ccc(CO)cc5)C(C(=O)NCc5ccc(CO)cc5)CC4OC4OC(CO)C(O)C(O)C4O)nn3)nn2)C(OC2OC(CO)C(O)C(O)C2O)CC1C(=O)NCc1ccc(CO)cc1` (stereo not shown) [Compound 1.6]: in assay [1], the Kd was 170 nM and 172 nM; the “ß factor (valency-corrected enhancement factor)” value (from here on “ß factor”) is reported as 38.

Turning to `[N-]=[N+]=NCCOC1CC(C(=O)NCc2ccc(CO)cc2)C(C(=O)NCc2ccc(CO)cc2)CC1OC1OC(CO)C(O)C(O)C1O` (stereo not shown) [Compound 1], the IC50 in the assay on DC-SIGN ECD was 270000 nM.

With `O=C(NCc1ccc(CO)cc1)C1CC(OCCn2cc(COCC(COCCOCCn3cc(-c4cc(OCCOCCO)c(C#Cc5cc(OCCOCCO)c(-c6cn(CCOCCOCC(COCc7cn(CCOC8CC(C(=O)NCc9ccc(CO)cc9)C(C(=O)NCc9ccc(CO)cc9)CC8OC8OC(CO)C(O)C(O)C8O)nn7)(COCc7cn(CCOC8CC(C(=O)NCc9ccc(CO)cc9)C(C(=O)NCc9ccc(CO)cc9)CC8OC8OC(CO)C(O)C(O)C8O)nn7)COCc7cn(CCOC8CC(C(=O)NCc9ccc(CO)cc9)C(C(=O)NCc9ccc(CO)cc9)CC8OC8OC(CO)C(O)C(O)C8O)nn7)nn6)cc5OCCOCCO)cc4OCCOCCO)nn3)(COCc3cn(CCOC4CC(C(=O)NCc5ccc(CO)cc5)C(C(=O)NCc5ccc(CO)cc5)CC4OC4OC(CO)C(O)C(O)C4O)nn3)COCc3cn(CCOC4CC(C(=O)NCc5ccc(CO)cc5)C(C(=O)NCc5ccc(CO)cc5)CC4OC4OC(CO)C(O)C(O)C4O)nn3)nn2)C(OC2OC(CO)C(O)C(O)C2O)CC1C(=O)NCc1ccc(CO)cc1` (stereo not shown) [Compound 2.6], in assay [1], the Kd was 140 ± 8 nM and the “ß factor” value was 47.

As for `O=C(NCc1ccc(CO)cc1)C1CC(OCCn2cc(-c3cc(OCCOCCO)c(C#Cc4cc(OCCOCCO)c(C#Cc5cc(OCCOCCO)c(-c6cn(CCOC7CC(C(=O)NCc8ccc(CO)cc8)C(C(=O)NCc8ccc(CO)cc8)CC7OC7OC(CO)C(O)C(O)C7O)nn6)cc5OCCOCCO)cc4OCCOCCO)cc3OCCOCCO)nn2)C(OC2OC(CO)C(O)C(O)C2O)CC1C(=O)NCc1ccc(CO)cc1` (stereo not shown) [Compound 3.2], at DC-SIGN ECD tetramer, the “n (stoichiometry)” value is 1.5 and 1.56 ± 0.04; the ΔH entry is on record as “–85.27 ± 4.48 kJ/mol”. The TΔS result at DC-SIGN ECD tetramer (calculated) is on record as “–54.4 kJ/mol”. Also, at DC-SIGN ECD tetramer (one-site binding model, read-out: KDapp), the Kd was 1100 ± 200 nM. Besides, in assay [1], the Kd is 2400 nM and 2440 nM; the “ß factor” value amounted to 8. For the same molecule, the IC50 in the assay on DC-SIGN ECD is 8000 nM.

B1: DC-SIGN extracellular domain, Q9NNX6 59-404 (domain or fragment)
chain: T1 sequence (Q9NNX6 59-404 limits assumed)
Turning to B1, the stoichiometry N in assay [2] was found to be 4.
